Assay results from US20110269811A1, “INHIBITORS OF SEMICARBAZIDE-SENSITIVE AMINE OXIDASE (SSAO) AND VAP-1 MEDIATED ADHESION USEFUL FOR TREATMENT AND PREVENTION OF DISEASES” (priority 2006, published 2011).

Experiments:
[1] = target: T1, D2S (h) (Homo sapiens, UniProt P14416); assay: Receptor binding screen, [^3H]spiperone; conditions: 10 uM Concentration of Compound I-1-Z; read-out: Mean Value, percent inhibition of control specific binding: D2S (h)
T1 construct: expressed in transfected cells; host or cells: HEK-293 cells

[2] = target: T2, D5 (h) (Homo sapiens, UniProt P21918); assay: Receptor binding screen, [^3H]SCH 23390; conditions: 10 uM Concentration of Compound I-1-Z; read-out: Mean Value, percent inhibition of control specific binding: D5 (h)
T2 construct: expressed in transfected cells; host or cells: GH4 cells

[3] = target: T3, κ (KOP) (Cavia porcellus, UniProt P41144); assay: Receptor binding screen, [^3H]U 69593, guinea-pig cerebellum; conditions: 10 uM Concentration of Compound I-1-Z; read-out: Mean Value, percent inhibition of control specific binding: κ (KOP)
T3 construct: cerebellum; from tissue; host or cells: guinea-pig cerebellum
Protocol: For Table 4 below, the specific ligand binding to the receptors is defined as the difference between the total binding and the nonspecific binding determined in the presence of an excess of unlabelled ligand. The results are expressed as a percent inhibition of control specific binding obtained in the presence of Compound I-1-Z. The IC50 values (concentration causing a half-maximal inhibition of control specific binding) and Hill coefficients (nH) were determined by non-linear regression analysis of the competition curves using Hill equation curve fitting. The inhibition constants (Ki) were calculated from the Cheng Prusoff equation (Ki=IC50/(1+(L/KD)), where L=concentration of radioligand in the assay, and KD=affinity of the radioligand for the receptor). In each experiment, the respective reference compound was tested concurrently with Compound I-1-Z in order to assess the assay suitability.

[4] = target: T4, 5-HT5A (h) (Homo sapiens, UniProt P47898); assay: Receptor binding screen, [^3H]LSD; conditions: 10 uM Concentration of Compound I-1-Z; read-out: Mean Value, percent inhibition of control specific binding: 5-HT5A (h)
T4 construct: expressed in transfected cells; host or cells: CHO cells

[5] = test system: Cl^− channel; assay: Receptor binding screen, [^35S]TBPS; set-up: species or system rat; conditions: 10 uM Concentration of Compound I-1-Z
[6] = test system: oxazolone-induced colitis; assay: Oxazolone-induced colitis; assay type: in vivo, SJL/J male mice; conditions: 30 mg/kg intraperitoneally, day 0 until day 12; FIG. 2A, 2B
Protocol: Oxazolone-induced colitis is a TH2-mediated process that closely resembles ulcerative colitis and is responsive to anti-IL4 therapy ((Strober W. et al (2002) Annu. Rev. Immunol. 20: 495, Boirivant M. et al. (1998) J. Ex. Med. 188: 1929). Oxazolone colitis is induced as described (Fuss I. J. et al. (2002) J. Immunol. 168: 900). Briefly, mice are pre-sensitized by epicutaneous application of 1% oxazolone (4-ethoxymethylene-2-phenyl-2oxazolin-5-one, Sigma) in 100% EtOH (200 μL) on day 0, followed by intrarectal administration of 0.75% oxazolone in 50% EtOH (100 μL) to anesthetized SJL/J male mice on day 5 through a 3.5 F catheter inserted 4 cm proximal to the anal verge. Mice are divided in two treatment groups and injected i.p. twice a day with either PBS or a compound of the invention. Injections are initiated at day 0 and are continued through day 12. Disease progression is evaluated by monitoring body weight and survival.
A study was carried out using the protocol described above for oxazolone-induced colitis. […] Disease progression was evaluated until day 15 (10 days after intrarectal administration) by monitoring survival rates and body weight. When following the above-described protocol, disease severity as measured by body weight drop was maximal at day 11 (6 days after intrarectal challenge), although animals started dying on day 9.

T2 sequence (P21918 whole entry): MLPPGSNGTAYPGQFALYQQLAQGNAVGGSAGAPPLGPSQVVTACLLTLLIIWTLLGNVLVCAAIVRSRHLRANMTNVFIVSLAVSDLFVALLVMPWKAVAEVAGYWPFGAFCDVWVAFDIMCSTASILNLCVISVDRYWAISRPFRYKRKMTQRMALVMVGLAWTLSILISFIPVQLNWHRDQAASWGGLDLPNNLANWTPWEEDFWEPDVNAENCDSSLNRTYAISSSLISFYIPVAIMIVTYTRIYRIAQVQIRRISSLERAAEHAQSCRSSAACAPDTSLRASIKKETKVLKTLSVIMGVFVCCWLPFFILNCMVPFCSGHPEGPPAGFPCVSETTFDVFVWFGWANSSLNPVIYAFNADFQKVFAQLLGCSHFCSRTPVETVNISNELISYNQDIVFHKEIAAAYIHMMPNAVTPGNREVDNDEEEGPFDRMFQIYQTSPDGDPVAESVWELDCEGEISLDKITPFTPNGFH
T3 sequence (P41144 whole entry): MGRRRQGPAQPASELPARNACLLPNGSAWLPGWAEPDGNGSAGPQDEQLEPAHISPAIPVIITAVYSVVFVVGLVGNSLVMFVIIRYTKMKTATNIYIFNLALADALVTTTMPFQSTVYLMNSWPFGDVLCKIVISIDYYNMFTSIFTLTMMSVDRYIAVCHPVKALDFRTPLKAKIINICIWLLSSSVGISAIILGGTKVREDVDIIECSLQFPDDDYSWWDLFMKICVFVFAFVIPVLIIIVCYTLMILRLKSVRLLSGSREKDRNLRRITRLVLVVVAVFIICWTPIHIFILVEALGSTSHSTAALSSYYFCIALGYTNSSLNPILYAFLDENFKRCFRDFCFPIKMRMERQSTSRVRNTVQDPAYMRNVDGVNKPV
T4 sequence (P47898 whole entry): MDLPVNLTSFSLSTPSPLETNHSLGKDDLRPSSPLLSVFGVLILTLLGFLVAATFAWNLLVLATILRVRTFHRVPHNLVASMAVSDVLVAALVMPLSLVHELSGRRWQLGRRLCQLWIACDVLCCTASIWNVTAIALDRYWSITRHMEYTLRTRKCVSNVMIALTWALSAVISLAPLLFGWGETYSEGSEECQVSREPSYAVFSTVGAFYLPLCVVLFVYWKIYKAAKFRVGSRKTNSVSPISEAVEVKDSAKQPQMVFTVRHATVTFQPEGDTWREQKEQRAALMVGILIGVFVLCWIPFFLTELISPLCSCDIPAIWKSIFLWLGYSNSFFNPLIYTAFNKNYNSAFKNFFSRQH
T1 sequence (P14416 1-414 isoform P14416-2): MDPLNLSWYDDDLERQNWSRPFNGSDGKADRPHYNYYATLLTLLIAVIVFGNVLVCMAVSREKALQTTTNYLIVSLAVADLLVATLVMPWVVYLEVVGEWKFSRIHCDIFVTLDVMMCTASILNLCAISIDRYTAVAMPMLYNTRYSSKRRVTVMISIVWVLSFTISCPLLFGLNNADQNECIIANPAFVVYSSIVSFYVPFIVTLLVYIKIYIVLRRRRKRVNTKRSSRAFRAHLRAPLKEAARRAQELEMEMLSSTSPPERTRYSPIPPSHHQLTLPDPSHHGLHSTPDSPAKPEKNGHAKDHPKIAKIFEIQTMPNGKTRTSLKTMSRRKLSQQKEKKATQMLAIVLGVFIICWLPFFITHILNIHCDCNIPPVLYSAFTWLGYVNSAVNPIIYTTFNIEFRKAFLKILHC

SMILES | inhibition at 10 µM [1] | inhibition at 10 µM [2] | inhibition at 10 µM [3] | inhibition at 10 µM [4] | Mean Value, percent inhibition of control specific binding: Cl^− channel [5] | survival rates and body weight loss compared with the vehicle group [6]
COc1ccc(C/C(=C/F)CN)cc1.Cl [Compound I-1-Z, (Z)-3-Fluoro-2-(4-methoxybenzyl)-allylamine hydrochloride] | -4% | -10% | -18% | -3% | −6% | 
NC/C(F)=C\Cc1cc(F)cc(C(F)(F)F)c1 [II-1-E, (E)-2-Fluoro-4-(3-fluoro-5-trifluoromethylphenyl)-but-2-enylamine] |  |  |  |  |  | improved survival rates and body weight loss
